In series [1] the target is T1, O-acetyl-L-serine sulfhydrylase CysK (Escherichia coli, UniProt P0ABK5).
T1 construct: StrepTagII (WSHPQFEK) (C); made in house; host or cells: E. coli BLR21(DE3) carrying pLE4 (T7 promoter, pRSET5a)
The class given is biochemical. Particulars: pH 7. The procedure: (§1) In order to use the O-acetyl-L-serine sulfhydrylases to prepare non-proteinogenic amino acids, other nucleophilic compounds were used in the reaction in place of sulfide or thiosulfate. In order to detect them, a precolumn derivatization for amino acids was carried out using ortho-phthaldialdehyde. Using this method, it was possible to carry out a broad screening for suitable nucleophilic substrates.
(§2) The mixtures contained 4 mM O-acetyl-L-serine (added from a 200 mM stock solution in 500 mM Nasuccinate buffer, pH 5.5), 20 mM nucleophilic compound, 100 mM K phosphate buffer, pH 7.0, and 5 μg of purified enzyme/ml. The reaction was stopped with 1/100th the volume of acetic acid (96% v/v) and analyzed by HPLC using a HP aminoquant column (200 mm×2.1 mm) in accordance with the manufacturer's instructions supplied by Hewlett Packard, Waldbronn, Germany.

Series [2] concerns the target T2, O-acetyl-L-serine sulfhydrylase CysM (Escherichia coli, UniProt P16703).
T2 construct: StrepTagII (WSHPQFEK) (C); made in house; host or cells: E. coli DH5alpha carrying pFL145 (tet promoter, pASK-IBA3)
The format is biochemical. Particulars: pH 7. The procedure: as §1, §2

Series [3] is classed as biochemical, Escherichia coli. The settings on record: 10 mM O-acetyl-serine, pH 7.0, 37° C., 5 μg purified enzyme/ml; for specific activity Acys (formation of cysteine using sulfide): 10 mM sodium sulfide. The procedure: The activity of O-acetyl-L-serine sulfhydrylases is measured by detecting the “natural” reaction product L-cysteine (Cys) or alternatively, in the case of CysM, also by detecting the reaction product as S-sulfo-L-cysteine (S-Cys). Both products can be detected very specifically and very sensitively using the test described by Gaitonde (1967, Biochem. J. 104: 627-633).
A typical test mixture contained 10 mM O-acetyl-serine (added from a 200 mM stock solution in 500 mM sodium succinate buffer, pH 5.5), 10 mM sodium sulfide or sodium thiosulfate, 100 mM potassium phosphate buffer, pH 7.0, and 5 μg of purified enzyme/ml, and is incubated at 37° C. The specific activity, A, is given in units/mg of protein, i.e. in μmol of product×min^−1×mg^−1 of protein. Acys denotes the specific activity of the formation of cysteine using sulfide. AS-Cys denotes the specific activity of the formation of S-sulfocysteine using thiosulfate. The specific activities using the proteins isolated in example 2 were: […]

T1 sequence (P0ABK5 whole entry, looked up): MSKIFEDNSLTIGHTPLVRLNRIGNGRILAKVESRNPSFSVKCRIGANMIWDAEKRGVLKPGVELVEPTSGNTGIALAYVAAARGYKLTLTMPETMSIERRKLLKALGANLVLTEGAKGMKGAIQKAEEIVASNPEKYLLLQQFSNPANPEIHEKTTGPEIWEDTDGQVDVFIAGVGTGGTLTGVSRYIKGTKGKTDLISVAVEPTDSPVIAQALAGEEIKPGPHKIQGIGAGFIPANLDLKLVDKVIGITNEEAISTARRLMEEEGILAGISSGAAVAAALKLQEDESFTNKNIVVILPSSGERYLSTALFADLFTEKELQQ

For the molecule 1,2-Pyrazole, the CysK conversion result in series [1] is recorded as “++ (key: +++: conversion greater than 70% after 30 min; ++: conversion greater than 40% after 30 min; +: conversion greater than 10% after 30 min; −: conversion less than 5% after 30 min)”. For the same molecule, in series [2], the CysM conversion result is on record as “++ (key: +++: conversion greater than 70% after 30 min; ++: conversion greater than 40% after 30 min; +: conversion greater than 10% after 30 min; −: conversion less than 5% after 30 min)”.
Regarding `O[C@@H](CS)[C@@H](O)CS` (racemic) [Dithiothreithol], the CysK conversion entry in series [1] is listed as “+++ (key: +++: conversion greater than 70% after 30 min; ++: conversion greater than 40% after 30 min; +: conversion greater than 10% after 30 min; −: conversion less than 5% after 30 min)”. In series [2], the CysM conversion result was “+++ (key: +++: conversion greater than 70% after 30 min; ++: conversion greater than 40% after 30 min; +: conversion greater than 10% after 30 min; −: conversion less than 5% after 30 min)”.
As for `c1nn[nH]n1` [1,2,3,4-Tetrazole], the CysK conversion entry in series [1] is recorded as “+++ (key: +++: conversion greater than 70% after 30 min; ++: conversion greater than 40% after 30 min; +: conversion greater than 10% after 30 min; −: conversion less than 5% after 30 min)”. In series [2], the CysM conversion result is listed as “++ (key: +++: conversion greater than 70% after 30 min; ++: conversion greater than 40% after 30 min; +: conversion greater than 10% after 30 min; −: conversion less than 5% after 30 min)”.
Take `c1ccc2[nH]nnc2c1` [1,2,3-Benzotriazole]: in series [1], the CysK conversion result is “++ (key: +++: conversion greater than 70% after 30 min; ++: conversion greater than 40% after 30 min; +: conversion greater than 10% after 30 min; −: conversion less than 5% after 30 min)”. Also, the CysM conversion result in series [2] is given as “+ (key: +++: conversion greater than 70% after 30 min; ++: conversion greater than 40% after 30 min; +: conversion greater than 10% after 30 min; −: conversion less than 5% after 30 min)”.
With `O=c1[nH]oc(=O)[nH]1` [1,2,4-Oxadiazolidine-3,5-dione], the CysK conversion entry in series [1] is reported as “− (key: +++: conversion greater than 70% after 30 min; ++: conversion greater than 40% after 30 min; +: conversion greater than 10% after 30 min; −: conversion less than 5% after 30 min)”. Besides, the CysM conversion result in series [2] was “+ (key: +++: conversion greater than 70% after 30 min; ++: conversion greater than 40% after 30 min; +: conversion greater than 10% after 30 min; −: conversion less than 5% after 30 min)”.
As to `c1nc[nH]n1` [1,2,4-Triazole], the CysK conversion entry in series [1] is “+++ (key: +++: conversion greater than 70% after 30 min; ++: conversion greater than 40% after 30 min; +: conversion greater than 10% after 30 min; −: conversion less than 5% after 30 min)”. The CysM conversion result in series [2] was “++ (key: +++: conversion greater than 70% after 30 min; ++: conversion greater than 40% after 30 min; +: conversion greater than 10% after 30 min; −: conversion less than 5% after 30 min)”.
On the same counts, the results for `Sc1nccs1` [2-Mercaptothiazole] are “++ (key: +++: conversion greater than 70% after 30 min; ++: conversion greater than 40% after 30 min; +: conversion greater than 10% after 30 min; −: conversion less than 5% after 30 min)” and “+++ (key: +++: conversion greater than 70% after 30 min; ++: conversion greater than 40% after 30 min; +: conversion greater than 10% after 30 min; −: conversion less than 5% after 30 min)”.
For `Sc1nc[nH]n1` [3 Mercapto-1,2,4-triazole] the same measures were “+ (key: +++: conversion greater than 70% after 30 min; ++: conversion greater than 40% after 30 min; +: conversion greater than 10% after 30 min; −: conversion less than 5% after 30 min)” and “+++ (key: +++: conversion greater than 70% after 30 min; ++: conversion greater than 40% after 30 min; +: conversion greater than 10% after 30 min; −: conversion less than 5% after 30 min)”.
Turning to `O=C(O)c1ccc2[nH]nnc2c1` [5-Carboxy-1,2,3-benzotriazole], the CysK conversion result in series [1] was “++ (key: +++: conversion greater than 70% after 30 min; ++: conversion greater than 40% after 30 min; +: conversion greater than 10% after 30 min; −: conversion less than 5% after 30 min)”. Moreover, in series [2], the CysM conversion result is given as “+ (key: +++: conversion greater than 70% after 30 min; ++: conversion greater than 40% after 30 min; +: conversion greater than 10% after 30 min; −: conversion less than 5% after 30 min)”.
For `Nc1nc2nn[nH]c2c(=O)[nH]1` [8-Azaguanine] the same measures were “− (key: +++: conversion greater than 70% after 30 min; ++: conversion greater than 40% after 30 min; +: conversion greater than 10% after 30 min; −: conversion less than 5% after 30 min)” and “+ (key: +++: conversion greater than 70% after 30 min; ++: conversion greater than 40% after 30 min; +: conversion greater than 10% after 30 min; −: conversion less than 5% after 30 min)”.
Regarding `OCCS` [Mercaptoethanol], the CysK conversion entry in series [1] is given as “+++ (key: +++: conversion greater than 70% after 30 min; ++: conversion greater than 40% after 30 min; +: conversion greater than 10% after 30 min; −: conversion less than 5% after 30 min)”. In series [2], the CysM conversion entry was “+++ (key: +++: conversion greater than 70% after 30 min; ++: conversion greater than 40% after 30 min; +: conversion greater than 10% after 30 min; −: conversion less than 5% after 30 min)”.
Regarding `[SeH]c1ccccc1` [Phenylselenol], the CysK conversion result in series [1] was “++ (key: +++: conversion greater than 70% after 30 min; ++: conversion greater than 40% after 30 min; +: conversion greater than 10% after 30 min; −: conversion less than 5% after 30 min)”. In addition, the CysM conversion result in series [2] is “+++ (key: +++: conversion greater than 70% after 30 min; ++: conversion greater than 40% after 30 min; +: conversion greater than 10% after 30 min; −: conversion less than 5% after 30 min)”.
On the same counts, the results for `[N-]=[N+]=[N-].[Na+]` [Sodium azide] are “+++ (key: +++: conversion greater than 70% after 30 min; ++: conversion greater than 40% after 30 min; +: conversion greater than 10% after 30 min; −: conversion less than 5% after 30 min)” and “+++ (key: +++: conversion greater than 70% after 30 min; ++: conversion greater than 40% after 30 min; +: conversion greater than 10% after 30 min; −: conversion less than 5% after 30 min)”.
For `[SeH2]` [Sodium selenide], the CysK conversion result in series [1] is given as “+++ (key: +++: conversion greater than 70% after 30 min; ++: conversion greater than 40% after 30 min; +: conversion greater than 10% after 30 min; −: conversion less than 5% after 30 min)”. The CysM conversion result in series [2] is “+++ (key: +++: conversion greater than 70% after 30 min; ++: conversion greater than 40% after 30 min; +: conversion greater than 10% after 30 min; −: conversion less than 5% after 30 min)”.
Turning to `Sc1ccccc1` [Thiophenol], the CysK conversion result in series [1] is on record as “++ (key: +++: conversion greater than 70% after 30 min; ++: conversion greater than 40% after 30 min; +: conversion greater than 10% after 30 min; −: conversion less than 5% after 30 min)”. Also, in series [2], the CysM conversion result is “+++ (key: +++: conversion greater than 70% after 30 min; ++: conversion greater than 40% after 30 min; +: conversion greater than 10% after 30 min; −: conversion less than 5% after 30 min)”.

B1: CysM: Escherichia coli O-acetyl-L-serine sulfhydrylase with C-terminal StrepTagII, purified by affinity chromatography (protein, UniProt P16703 1-303, looked up)
Cysteine synthase B: MSTLEQTIGNTPLVKLQRMGPDNGSEVWLKLEGNNPAGSVKDRAALSMIVEAEKRGEIKPGDVLIEATSGNTGIALAMIAALKGYRMKLLMPDNMSQERRAAMRAYGAELILVTKEQGMEGARDLALEMANRGEGKLLDQFNNPDNPYAHYTTTGPEIWQQTGGRITHFVSSMGTTGTITGVSRFMREQSKPVTIVGLQPEEGSSIPGIRRWPTEYLPGIFNASLVDEVLDIHQRDAENTMRELAVREGIFCGVSSGGAVAGALRVAKANPDAVVVAIICDRGDRYLSTGVFGEEHFSQGAGI
In the case of B1, the “specific activity Acys (formation of cysteine using sulfide)” value in series [3] is given as 199 units/mg. For the same molecule, the “specific activity AS-cys (formation of S-sulfocysteine using thiosulfate)” value in series [3] (10 mM sodium thiosulfate) is 145 units/mg.

B2: CysK: Escherichia coli O-acetyl-L-serine sulfhydrylase with C-terminal StrepTagII, purified by affinity chromatography (protein, UniProt P0ABK5 2-323, looked up)
Cysteine synthase A: SKIFEDNSLTIGHTPLVRLNRIGNGRILAKVESRNPSFSVKCRIGANMIWDAEKRGVLKPGVELVEPTSGNTGIALAYVAAARGYKLTLTMPETMSIERRKLLKALGANLVLTEGAKGMKGAIQKAEEIVASNPEKYLLLQQFSNPANPEIHEKTTGPEIWEDTDGQVDVFIAGVGTGGTLTGVSRYIKGTKGKTDLISVAVEPTDSPVIAQALAGEEIKPGPHKIQGIGAGFIPANLDLKLVDKVIGITNEEAISTARRLMEEEGILAGISSGAAVAAALKLQEDESFTNKNIVVILPSSGERYLSTALFADLFTEKELQQ
Regarding B2, in series [3], the “specific activity Acys (formation of cysteine using sulfide)” value was 140 units/mg.

(Values after patent publication US6579705B2, “Process for preparing non-proteinogenic L-amino acids” (Consortium fur Elektrochemische Industrie GmbH, priority 2001, dated 2003).)
